Assay [1] addresses Muscarinic acetylcholine receptor. Briefly: Displacement of [3H]N-methylscopolamine from rat brain homogenate. Format: tissue-based. A general note: Displacement assays read how much labelled ligand stays bound in the presence of the test substance.
For assay [2] the target is unchanged. Kind of assay: Ability (10 ug/kg) to inhibit binding of [125I]iododexetimide to muscarinic receptor in mice.
A short description of assay [3]: Ability (10 ug/kg) to inhibit binding of [125I]iododexetimide to 5-hydroxytryptamine receptor in mice. The conditions noted are these: Mus musculus.
Assay [4] in a line: Ability (10 ug/kg) to inhibit binding of [125I]iododexetimide to adrenergic receptor in mice.

The structures appear in SMILES notation.

A word on the IC50: it is the point on the concentration scale where inhibition reaches its midpoint. A high value points to a need for much substance. For `O=C1CCC(c2ccccc2)(C2CCN(Cc3cccc(F)c3)CC2)C(=O)N1` (configuration not stated), in assay [1], the IC50 stood at 21 nM.
The compound `O=C1CCC(c2ccccc2)(C2CCN(Cc3ccc(Cl)cc3)CC2)C(=O)N1` (configuration not stated) had an IC50 in assay [1] of 27 nM.
Still for that read-out and setting: the figure for `O=C1CCC(c2ccccc2)(C2CCN(Cc3cccc(I)c3)CC2)C(=O)N1` (configuration not stated) is 22 nM.
The same measure, in the same setting: the figure for `O=C1CCC(c2ccccc2)(C2CCN(Cc3ccc(Br)cc3)CC2)C(=O)N1` (configuration not stated) is 38 nM; for `O=C1CCC(c2ccccc2)(C2CCN(Cc3ccccc3F)CC2)C(=O)N1` (configuration not stated) it is 32 nM; for `O=C1CCC(c2ccccc2)(C2CCN(Cc3cccc(Br)c3)CC2)C(=O)N1` (configuration not stated) it is 24 nM.
Still for that read-out and setting: for `O=C1CCC(c2ccccc2)(C2CCN(Cc3cccc(Cl)c3)CC2)C(=O)N1` (configuration not stated) the value was 26 nM; for `O=C1CCC(c2ccccc2)(C2CCN(Cc3ccccc3Br)CC2)C(=O)N1` (configuration not stated), 500 nM.
In the case of `O=C1CCC(c2ccccc2)(C2CCN(Cc3ccc(I)cc3)CC2)C(=O)N1` (configuration not stated), in assay [1], the IC50 stood at 17 nM.
Still for that read-out and setting: for `O=C1CCC(c2ccccc2)(C2CCN(Cc3ccc(F)cc3)CC2)C(=O)N1` (configuration not stated) the value was 98 nM; for `O=C1CCC(c2ccccc2)(C2CCN(Cc3ccccc3I)CC2)C(=O)N1` (configuration not stated), 500 nM; for `O=C1CCC(c2ccccc2)(C2CCN(Cc3ccccc3Cl)CC2)C(=O)N1` (configuration not stated), 460 nM.
Take `Cl.O=C1CCC(c2ccccc2)(C2CCN(Cc3ccccc3)CC2)C(=O)N1` (configuration not stated) [BENZETIMIDE HYDROCHLORIDE]: the IC50 in assay [2] was determined as 8900 nM.
In turn, `O=C1CCC(c2ccccc2)(C2CCN(Cc3ccccc3)CC2)C(=O)N1` (configuration not stated) [BENZETIMIDE] yielded an IC50 in assay [1] of 15 nM.
For `O=C1CC[C@@](c2ccccc2)(C2CCN(Cc3ccccc3)CC2)C(=O)N1` [DEXETIMIDE], the IC50 in assay [2] worked out at 3.3 nM.
Consider `O=C(c1ccc(F)cc1)C1CCN(CCn2c(=O)[nH]c3ccccc3c2=O)CC1` [KETANSERIN], for which, in assay [3], the IC50 stood at 130000 nM.
Take `COc1cc2nc(N3CCN(C(=O)c4ccco4)CC3)nc(N)c2cc1OC` [PRAZOSIN]: the IC50 in assay [4] amounted to 13000 nM.

For the origin of these results see ChEMBL document CHEMBL1124460, “Synthesis and biological evaluation of [125I]- and [123I]-4-iododexetimide, a potent muscarinic cholinergic receptor antagonist” (J Med Chem, 1989).
